{
  "source": "patent US6313164A",
  "about": "“Dithiolin derivatives, their preparation and their therapeutic effect” (Sankyo Company, Limited, priority 1997, dated 2001)",
  "key": {"glutathione reductase": {"tested_on": "glutathione reductase", "experiment": "Measurement of glutathione reductase activity in cultured rat lens", "format": "cell-based, SD rats", "details": "72 hours, 37° C.", "protocol": "The test animals were 6 to 8 week old male SD rats (supplier: Nippon SLC). The animals were sacrificed by suffocation by inhalation of carbon dioxide. Both eyeballs of each test animal were then excised. An incision was made in the sclera on the back of the eyeballs, and then the vitreous body and iris-ciliary body were removed, followed by removal of the lens.\nEach lens obtained in this manner was cultured by immersing it in 3 ml of the culture solution described below in a 6-well tissue culture plate (FALCON). Culturing was performed for 72 hours in a CO2 incubator maintained at 37° C. and 100% humidity in the presence of 5% CO2 (in air).\nMedium 199 (Gibco) containing penicillin (20 units/ml) and streptomycin (20 μg/ml) was used as the control culture solution.\nThe test culture solution contained the test compound added to the above-mentioned culture solution. The cultured lenses were placed in frozen storage until the time of the test.\nAfter homogenising each frozen rat lens in 2 ml of distilled water, the resulting homogenate was separated by centrifugation (10,000 g, 20 minutes) after which the resulting supernatant was used as the enzyme sample.\n400 μl of enzyme sample were added to 0.6 ml of phosphate buffer containing 1 mM oxidized glutathione (GSSG) and 100 μM NADPH. After the mixture had reacted at 25° C. for 6 minutes, the absorbance of the reaction mixture (at 340 nm: i.e. OD340nm) was measured. The difference (ΔOD340nm) between the OD340nm value before reaction and the OD340nm value after completion of the reaction was used as an indicator of glutathione reductase activity."}, "newborn rats": {"tested_on": "newborn rats", "details": "cited from earlier work"}},
  "data": [
    {"smiles": "CS(=O)(=O)NC(=O)CCCCC1CCSS1", "note": "(centres unmarked) [Example 2, N-[5-(1,2-Dithiolan-3-yl)pentanoyl]methanesulfonamide]", "values": [
      {"measurement": "ΔOD340 nm /min/g protein (indicator of glutathione reductase activity)", "setting": "glutathione reductase; 10 μM in lens culture solution", "result": "3.24 ± 0.10 ΔOD340 nm /min/g protein"},
      {"measurement": "ΔOD340 nm /min/g protein (indicator of glutathione reductase activity)", "setting": "glutathione reductase; 30 μM in lens culture solution", "result": "3.20 ± 0.09 ΔOD340 nm /min/g protein"},
      {"measurement": "ΔOD340 nm /min/g protein (indicator of glutathione reductase activity)", "setting": "glutathione reductase; 100 μM in lens culture solution, p < 0.05", "result": "3.59 ± 0.05 ΔOD340 nm /min/g protein"},
      {"measurement": "ΔOD340 nm /min/g protein (indicator of glutathione reductase activity)", "setting": "glutathione reductase; 300 μM in lens culture solution, p < 0.05", "result": "3.70 ± 0.08 ΔOD340 nm /min/g protein"},
      {"measurement": "ΔOD340 nm /min/g protein (indicator of glutathione reductase activity)", "setting": "glutathione reductase; 1000 μM in lens culture solution, p < 0.05", "result": "4.16 ± 0.18 ΔOD340 nm /min/g protein"}
    ]},
    {"smiles": "O=C(O)CCCCC1CCSS1", "note": "(centres unmarked) [lipoic acid]", "values": [
      {"measurement": "activity of glutathione reductase", "setting": "newborn rats; lipoic acid in addition to BSO", "result": "does not increase"},
      {"measurement": "cataract formation", "setting": "newborn rats; lipoic acid together with BSO", "result": "suppressed"},
      {"measurement": "total glutathione (oxidized and reduced glutathione) level", "setting": "newborn rats; lipoic acid together with BSO", "result": "decrease is prevented"}
    ]}
  ]
}
